Values quoted from earlier work in US20230285491A1, “COMPOSITION FOR PREVENTION OF DUMPING SYNDROME IN A POST-BARIATRIC SURGERY SETTING” (METAGENICS, INC., priority 2020, published 2023).

Biological target: T1, GLP-1 receptor (Homo sapiens, UniProt P43220)
T1 construct: GLP-1 receptor antagonism prevented hypoglycemia in all patients and reversed neuroglycopenic symptoms; host or cells: gastric bypass patients (in vivo, endogenous receptor)
Conditions: gastric bypass patients

T1 sequence (P43220 24-463): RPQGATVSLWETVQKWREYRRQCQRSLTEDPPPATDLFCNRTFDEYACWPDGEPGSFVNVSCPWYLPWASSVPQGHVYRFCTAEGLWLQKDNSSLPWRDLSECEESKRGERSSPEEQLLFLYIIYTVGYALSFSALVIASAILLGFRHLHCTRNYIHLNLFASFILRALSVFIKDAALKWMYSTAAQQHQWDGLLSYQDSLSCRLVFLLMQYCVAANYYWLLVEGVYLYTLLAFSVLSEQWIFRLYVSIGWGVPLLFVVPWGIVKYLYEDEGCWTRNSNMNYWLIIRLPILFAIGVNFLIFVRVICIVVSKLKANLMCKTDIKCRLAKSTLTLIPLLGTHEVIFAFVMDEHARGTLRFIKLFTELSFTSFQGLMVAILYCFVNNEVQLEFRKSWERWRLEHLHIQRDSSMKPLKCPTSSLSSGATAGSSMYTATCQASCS

Exendin-(9-39)
effect on postprandial hypoglycemic and hyperinsulinemic events: corrected postprandial hypoglycemic and hyperinsulinemic events
